Results: PMC10175095 (Therapeutic drug monitoring, 2023)

Experiments:
[1] = Processed sample stability in final extract; format: physicochemical; details: 4°C, autosampler, 25.1 h
[2] = requires confirmation in prospective studies; cited from earlier work
[3] = Freeze-thaw stability of unprocessed plasma samples; format: in vitro ADME; details: human plasma, 3 freeze (-80°C)-thaw cycles
[4] = Pre-processed stability in human plasma; format: in vitro ADME; details: 2.5 h
[5] = Long-term stability of unprocessed plasma samples at −80°C; format: in vitro ADME; details: human plasma
[6] = Reinjection stability in final extract; format: physicochemical; details: reinjected, 4°C, autosampler, 25.95 h
[7] = RT (20–25°C), yellow light, nominal 15 ng/mL

Accuracy vs fresh QCs ([1]; nominal 15 ng/mL): 95.6% | Mean measured concentration ([1]; nominal 15 ng/mL): 15.9 ng/mL | Accuracy vs fresh QCs ([1]; nominal 1500 ng/mL): 102% | Mean measured concentration ([1]; nominal 1500 ng/mL): 1510 ng/mL | Mean measured concentration ([3]; nominal 15 ng/mL): 15.1 ng/mL | Accuracy vs fresh QCs ([3]; nominal 1500 ng/mL): 98.8% | Accuracy vs. nominal concentration ([3]; nominal 1500 ng/mL): 98.7% | Mean measured concentration ([3]; nominal 1500 ng/mL): 1480 ng/mL | Accuracy vs fresh QCs ([4]; 37°C, dark, nominal 15 ng/mL): 97.5% | Mean measured concentration ([4]; 37°C, dark, nominal 15 ng/mL): 15.4 ng/mL | Mean measured concentration ([4]; 37°C, dark, nominal 1500 ng/mL): 1527 ng/mL | Accuracy vs fresh QCs [4, 7]: 99.4% | Mean measured concentration [4, 7]: 15.7 ng/mL | Mean measured concentration ([4]; RT (20–25°C), yellow light, nominal 1500 ng/mL): 1550 ng/mL | Accuracy vs fresh QCs ([5]; 3 months, nominal 15 ng/mL): 98.6% | Mean measured concentration ([5]; 3 months, nominal 15 ng/mL): 14.7 ng/mL | Accuracy vs fresh QCs ([5]; 3 months, nominal 150 ng/mL): 95.5% | Mean measured concentration ([5]; 3 months, nominal 150 ng/mL): 149 ng/mL | Accuracy vs fresh QCs ([5]; 3 months, nominal 1500 ng/mL): 95.6% | Mean measured concentration ([5]; 3 months, nominal 1500 ng/mL): 1437 ng/mL | Mean measured concentration ([5]; 7 months, nominal 15 ng/mL): 14.1 ng/mL | Accuracy vs fresh QCs ([5]; 7 months, nominal 150 ng/mL): 98.9% | Mean measured concentration ([5]; 7 months, nominal 150 ng/mL): 156 ng/mL | Accuracy vs fresh QCs ([5]; 7 months, nominal 1500 ng/mL): 97.5% | Mean measured concentration ([5]; 7 months, nominal 1500 ng/mL): 1443 ng/mL | Mean measured concentration ([5]; 12 months, nominal 15 ng/mL): 15.2 ng/mL | Accuracy vs fresh QCs ([5]; 12 months, nominal 150 ng/mL): 99.0% | Mean measured concentration ([5]; 12 months, nominal 150 ng/mL): 164 ng/mL | Accuracy vs fresh QCs ([5]; 12 months, nominal 1500 ng/mL): 96.6% | Mean measured concentration ([5]; 12 months, nominal 1500 ng/mL): 1583 ng/mL | Accuracy vs fresh QCs ([6]; nominal 15 ng/mL): 98.2% | Mean measured concentration ([6]; nominal 15 ng/mL): 16.4 ng/mL | Accuracy vs fresh QCs ([6]; nominal 150 ng/mL): 98.7% | Mean measured concentration ([6]; nominal 150 ng/mL): 155 ng/mL | Accuracy vs fresh QCs ([6]; nominal 1500 ng/mL): 103% | Mean measured concentration ([6]; nominal 1500 ng/mL): 1527 ng/mL
Structure (SMILES): CCN1CCN(Cc2ccc(Nc3ncc(F)c(-c4cc(F)c5nc(C)n(C(C)C)c5c4)n3)nc2)CC1 [Abemaciclib, abemaciclib]
Proposed target Cmin for TDM [2]: 200 to 210 ng/mL
